Measurements published in patent US11806393B2, “Flavivirus peptide sequences, epitopes, and methods and uses thereof” (priority 2017, dated 2023).

Tests used:
Type in all cases: cell-based, mouse
CD8+ T cells = experiment: ICS, DENV2-immune Ifnar-/- HLA-B*0702 mice challenged with ZIKV FSS13025; details: day 3 after ZIKV FSS13025 challenge
Description: Two ZIKV strains, MR766 (Uganda, 1947) and FSS13025 (Cambodia, 2010), were obtained from the World Reference Center for Emerging Viruses and Arboviruses (WRCEVA). The mouse-adapted DENV2 strain S221 is a triple-plaque purified clone derived from DENV2 D2S1038. Both ZIKV and DENV2 were amplified in C6/36 mosquito cells, and viral titers were measured using baby hamster kidney (BHK)-21 cell-based focus forming assay (FFA). For epitope screening, 5-week old mice (female or male) were infected retro-orbitally (R.O.) with either 1×102 FFU of ZIKV FSS13025 or ZIKV MR766, or 2×10^4 FFU of DENV2 S221 in 200 μl 10% FBS/PBS. Seven days after infection, CD8^+ T cells were isolated from splenocytes and used for ELISPOT assay, while the splenocytes were directly used for ICS assay. Additionally, 5-week old mice were inoculated I.P. with 2×10^3 FFU of DENV2 S221 for 4 weeks.
Spleens were harvested from virus-infected, mock-immunized, or peptide-immunized mice. 1×10^6 splenocytes were plated in each well of 96-well U-bottom plates and stimulated with individual peptide (10 μg crude peptide or 1 μg pure peptide per well) for 6 hours. Five hours before the end of incubation, Brefeldin A (GolgiPlug; BD Biosciences) and PE-conjugated anti CD107a mAb (clone 1D4B, eBioscience) were added to the cells. Splenocytes stimulated with PMA-ionomycin were used as the positive control, while cells without any stimulation were the negative control. After incubation, cells were first stained with PERCPCY™ 5.5-conjugated anti-CD3 mAb (Clone 145-2C11, TONBO), PE-CY7™-conjugated anti-CD8 mAb (clone 53-67, BD Biosciences), EFLUOR™ 450-conjugated anti-CD44 mAb (clone IM7, eBioscience), and APC eFluor 780-conjugated anti-CD62L mAb (clone Mel-14, eBioscience). Cells were then fixed and permeabilized using CYTOFIX/CYTOPERM™ solution (BD Biosciences), followed by staining with FITC-conjugated anti-IFNγ mAb (clone XMG 1.2, TONBO) and APC-conjugated anti-TNFα mAb (clone MP6-XT22, eBioscience). Samples were run using an LSR™ II (BD Biosciences) and analyzed using FLOWJO™ software X 10.0.7 (Tree Star, Ashland, Oreg.).
The following results are with respect to FIG. 11 to FIG. 11E, where Ifnar^−/− HLA-B*0702 transgenic mice were inoculated I.P. with 2×10^3 FFU of DENV2 strain S221 for 4 weeks. Naive mice (n=5) and DENV2 strain S221-immune mice (n=5) were challenged R.O. with 1×10^4 FU of ZIKV FSS13025 for three days, and the percentages of peptide-specific IFNγ^+ and/or TNFα^+ CD8^+ T cells were detected by ICS (FIG. 11A and FIG. 11B). […] Data were expressed as mean±SEM. *, P<0.05; **, P<0.01; Two-tailed ann-Whitney test. Black “*” indicates ZIKV-specific response while bold “*” represents ZIKV/DENV cross-reactive response. All positive peptides were grouped according the ZIKV specificity of immune response (FIG. 11E). Numbers in parentheses indicate the number of positive peptides in this group.

CD44+CD62L- CD8+ T cells = experiment: ICS, peptide-immunized Ifnar-/- HLA-B*0702 mice challenged with ZIKV; details: mice immunized with the 4 ZIKV/DENV cross-reactive peptides, day 3 after ZIKV challenge
Source text: Two HLA-B*0702-binding ZIKV-specific peptides (FSS-NS2A133-141(SEQ ID NO: 41) and FSS/MR766-NS2B68-75 (SEQ ID NO: 45)) and four ZIKV/DENV cross-reactive peptides (FSS/MR766-NS4B426-435 (SEQ ID NO: 60), FSS/MR766-NS2A75-84 (SEQ ID NO: 39), FSS/MR766-NS3206-215 (SEQ ID NO: 47), and FSS/MR766-NS3574-582 (SEQ ID NO: 52)) were chosen for synthesis. Five HLA-A*0101-binding peptides (FSS/MR-E159-167 (SEQ ID NO: 70), FSS/MR-E195-203 (SEQ ID NO: 71), FSS/MR-NS123-31 (SEQ ID NO: 74), FSS/MR-NS4B231-239 (SEQ ID NO: 77), and FSS/MR-NS5509-517 (SEQ ID NO: 79)) were chosen for synthesis. Mice (both female and male; 5-6 weeks of age) were immunized subcutaneously with a mixture of HCV helper peptide (100 μg/mouse) and 3 or 4 HLA-B*0702-binding peptides (50 μg/peptide/mouse) emulsified in Complete Freund's Adjuvant (CFA). Mock group mice received the same immunization strategy but without any ZIKV-specific or ZIKV/DENV cross-reactive peptide. On the 21st day, mice were boosted with the same peptide mixtures emulsified in Incomplete Freund's Adjuvant (IFA). […] Three days post ZIKV infection mice were sacrificed, and serum and spleen were harvested. The splenocytes were used for ICS assay. After cardiac perfusion with PBS, brain was harvested. The levels of infectious ZIKV in serum and brain were measured using FFA.
Spleens were harvested from virus-infected, mock-immunized, or peptide-immunized mice. 1×10^6 splenocytes were plated in each well of 96-well U-bottom plates and stimulated with individual peptide (10 μg crude peptide or 1 μg pure peptide per well) for 6 hours. Five hours before the end of incubation, Brefeldin A (GolgiPlug; BD Biosciences) and PE-conjugated anti CD107a mAb (clone 1D4B, eBioscience) were added to the cells. Splenocytes stimulated with PMA-ionomycin were used as the positive control, while cells without any stimulation were the negative control. […] Samples were run using an LSR™ II (BD Biosciences) and analyzed using FLOWJO™ software X 10.0.7 (Tree Star, Ashland, Oreg.).
Peptide groups received corresponding peptide immunizations as described in Materials and Methods. […] CD3^+CD8^+CD44^+CD62L− T cells were gated and the percentages of IFNγ^+ and/or TNFα^+ cells in a representative mouse from mock (FIG. 12A) and peptide (FIG. 12B) groups were determined by ICS. The levels of infectious ZIKV in sera and brains were measured via FFA. Data were expressed as mean±SEM. *, P<0.05; **, P<0.01; ***, P<0.001. Two-tailed Mann-Whitney test.

CD3+CD8+ T cells = experiment: IFNγ ICS, ZIKV-infected Ifnar-/- HLA-B*0702 transgenic mice; details: for % IFNγ+ CD8+ T cells, FSS13025 / % IFNγ+ CD8+ T cells, MR766: HLA-B*0702 mice; for % IFNγ+ CD8+ T cells, FSS13025: 7 days after ZIKV FSS13025, ICS; for % IFNγ+ CD8+ T cells, MR766: 7 days after ZIKV MR766, ICS; for simultaneous IFNγ and TNFα production by peptide-stimulated CD8+ T cells: ZIKV MR766-infected mice

KPRWMDARV [FSS/MR-NS3574-582]
IFNγ and TNFα double-positive epitope-specific CD8+ T cells (CD8+ T cells): double-positive with expression of both IFNγ and TNFα
percentage of epitope-specific IFNγ-producing CD8+ T cells (CD8+ T cells): 2.61±1.19%
percentage of epitope-specific cells among antigen experienced (CD44+CD62L-) CD8+ T cells (CD44+CD62L- CD8+ T cells): 0.84±0.39%
% IFNγ+ CD8+ T cells, FSS13025 (CD3+CD8+ T cells): (0.79%)
% IFNγ+ CD8+ T cells, MR766 (CD3+CD8+ T cells): (1.9%)
simultaneous IFNγ and TNFα production by peptide-stimulated CD8+ T cells (CD3+CD8+ T cells): stimulated simultaneous production of IFNγ and TNFα

RPALLVSFIF [FSS/MR-NS2A75-84]
IFNγ and TNFα double-positive epitope-specific CD8+ T cells (CD8+ T cells): double-positive with expression of both IFNγ and TNFα
percentage of epitope-specific IFNγ-producing CD8+ T cells (CD8+ T cells): 0.44±0.24%
percentage of epitope-specific cells among antigen experienced (CD44+CD62L-) CD8+ T cells (CD44+CD62L- CD8+ T cells): 3.27±1.91%
% IFNγ+ CD8+ T cells, FSS13025 (CD3+CD8+ T cells): (0.53%)
% IFNγ+ CD8+ T cells, MR766 (CD3+CD8+ T cells): (2.04%)
simultaneous IFNγ and TNFα production by peptide-stimulated CD8+ T cells (CD3+CD8+ T cells): stimulated simultaneous production of IFNγ and TNFα
